Results: US9078868B2, “Therapeutic agent for accelerating recovery of animal under medical treatment” (UNIVERSITY OF MIYAZAKI, priority 2010, dated 2015)
No end group written: not given here. *: point of attachment. Octanoyl = CCCCCCCC(=O)*

Columns and labels:
[1] = test system: animals which did not ingest food after administration of ghrelin; test: Example 4: improvement in animals which did not ingest food after administration of ghrelin; format: in vivo, canines and felines
Description: Diseases: Rib fracture, chronic renal failure, falling accident, infectious respiratory syndrome, hemobartonellosis, FIV, FELV infection, CPV infection, habu bite, diarrhea, vomiting, mammary gland tumor, traffic accident, fracture surgery, urinary retention, renal failure, urethroplasty, urinary retention, forelimb trauma Number of animals: 15 Activity improved: 11/13 (2, not evaluated; 2 unchanged) GPT value improved: 3/3 GOT value improved: 2/2 BUN value improved: 2/2 CRE value improved: 2/2 CPK value improved: 1/1 ALP value improved: 1/1 WBC value improved: 1/1 (decreased) PLT value improved: 2/2 Body temperature decreased: 2/2

[2] = test system: animals under medical treatment with physical conditions worsened by various diseases; test: Example 2: single dose of ghrelin in animals under medical treatment for pathological conditions other than a surgery; format: in vivo, canines and felines; conditions: for Activity (vigor): animals improved/animals evaluated / Activity (vigor): response rate / Biochemical tests: animals improved/animals evaluated / Biochemical tests: response rate / Hematology tests: animals improved/animals evaluated / Hematology tests: response rate / Body temperature: animals improved/animals evaluated / Body temperature: response rate: single dose
Procedure: In these Examples, a canine-derived ghrelin (a peptide compound in which a side chain hydroxyl group of the serine residue at the 3rd position from the amino terminus is acylated with an n-octanoyl group in SEQ ID NO: 1) was used as ghrelin. The canine-derived ghrelin was chemically synthesized and then lyophilized, and a canine-derived ghrelin for administration containing 0.1, 0.3, 0.5, or 1 mg per vial of a canine-derived ghrelin was prepared.
To administer ghrelin to animals, the canine-derived ghrelin was dissolved to a concentration of 1 mg/2 mL in physiological saline and intravenously, subcutaneously, or intramuscularly injected after the dose was adjusted depending on the body weight.
Animals hospitalized in veterinary hospitals, particularly canines and felines, were used for treatment. These animals may or may not have undergone a surgery for treatment. The surgeries performed on the animals were pyometra surgery, surgical removal of a reproductive organ, surgical removal of mammary gland tumor, ovary cyst surgery, liver cell tumor surgery, disc hernia surgery, diaphragmatic hernia surgery, fracture surgery, gastrointestinal tract surgery, and urethroplasty.
Physical conditions in animals with various pathological conditions were examined by measuring parameters including activity (vigor), blood cell test values, biochemical test values, urinalysis, electrolyte tests, body weight, body temperature, the degree of anger or anxiety, respiratory rate, and the like to evaluate the effect of improving physical conditions in the animals. The effect was evaluated by comparing various evaluation parameters before and after administration.
The evaluation parameters used were activity (vigor), body temperature, hematology parameters (blood cell test values), serum biochemistry parameters (biochemical test values), the degree of anger or anxiety, and respiratory rate. […] The degree of anger or anxiety of an animal observed visually by an observer were also evaluated using the following criteria: 1. calm and accustomed to a health care professional, 2. able to be touched by but unaccustomed to a health care professional and restless, 3. wandering around or hiding in the kennel with anxiety, 4. able to be barely touched, and 5. too violent to be touched by a health care professional and tends to bite.
Ten animals had two or more diseases concurrently. The diseases including concurrent diseases were as follows: lower urological syndrome, urinary retention, infectious respiratory syndrome, chronic renal failure, osteoarthritis, chronic hepatitis, cystolithiasis, malnutrition, debility, jaundice, circulatory insufficiency, multiple organ failure, pulmonary edema, anemia, tabefaction, diarrhea, vomiting, wheezing, pyrexia, FIV, FELV infection, CPV infection, FVR, a liver disease, filariasis, hemobartonellosis, babesiosis, habu bite, anaphylaxis, a falling accident, rib fracture, and burn.
Of the animals with these diseases, the evaluation parameters recorded in medical records were as follows: activity (vigor) in 16 animals, biochemistry parameters (biochemical test values) in 11 animals, hematology parameters (blood cell test values) in three animals, and body temperature in one animal.

[3] = animals which did not ingest food
[4] = multiple organ failure, 1 animal
[5] = total, 18 animals with various diseases

Substance: GSS (n-octanoyl) FLSPEHQKLQQRKESKKPPAKLQPR (GSS(Octanoyl)FLSPEHQKLQQRKESKKPPAKLQPR; listed as Canis familiaris) [ghrelin, chemically synthesized, lyophilized]
- Activity improved: animals improved/animals evaluated ([1]; 15 animals which did not ingest food, 2 not evaluated, 2 unchanged): 11/13
- ALP value improved: animals improved/animals evaluated [1, 3]: 1/1
- BUN value improved: animals improved/animals evaluated [1, 3]: 2/2
- Body temperature decreased: animals improved/animals evaluated [1, 3]: 2/2
- CPK value improved: animals improved/animals evaluated [1, 3]: 1/1
- CRE value improved: animals improved/animals evaluated [1, 3]: 2/2
- GOT value improved: animals improved/animals evaluated [1, 3]: 2/2
- GPT value improved: animals improved/animals evaluated [1, 3]: 3/3
- PLT value improved: animals improved/animals evaluated [1, 3]: 2/2
- WBC value improved (decreased): animals improved/animals evaluated [1, 3]: 1/1
- Activity (vigor): animals improved/animals evaluated ([2]; accident etc., 3 animals): 3/3
- Activity (vigor): response rate ([2]; accident etc., 3 animals): 100%
- Biochemical tests: animals improved/animals evaluated ([2]; accident etc., 3 animals): 1/1
- Biochemical tests: response rate ([2]; accident etc., 3 animals): 100%
- Activity (vigor): animals improved/animals evaluated ([2]; anaphylaxis, 1 animal): 1/1
- Activity (vigor): response rate ([2]; anaphylaxis, 1 animal): 100%
- Biochemical tests: animals improved/animals evaluated ([2]; anaphylaxis, 1 animal): 1/1
- Biochemical tests: response rate ([2]; anaphylaxis, 1 animal): 100%
- Serum potassium (K) value after administration ([2]; animals in the Examples with decreased serum potassium after persistent poor physical conditions): improved
- T-bil after administration ([2]; before administration 18.8 mg/dL): 4.9 mg/dL
- Activity (vigor): animals improved/animals evaluated ([2]; debility, 1 animal): 1/1
- Activity (vigor): response rate ([2]; debility, 1 animal): 100%
- Biochemical tests: animals improved/animals evaluated ([2]; debility, 1 animal): 1/1
- Biochemical tests: response rate ([2]; debility, 1 animal): 100%
- NH3 after administration ([2]; example, before administration 207 μg/dL): 302 µg/dL
- Cre after administration ([2]; example, before administration 3.2 mg/dL): 1.3 mg/dL
- BUN after administration ([2]; example, before administration 72.5 mg/dL): 15.4 mg/dL
- Body temperature after administration ([2]; example, before administration 40.2° C.): 37.8 °C
- White blood cell count after administration ([2]; example, before administration 278×10^2/μL): 16700 µL⁻¹
- ALP after administration ([2]; example, before administration 643 IU/L): 291 IU/L
- GPT after administration ([2]; example, before administration 670 IU/L): 260 IU/L
- CPK after administration ([2]; example, before administration 1166 IU/L): 64 IU/L
- GOT after administration ([2]; example, before administration >1000 IU/L): 187 IU/L
- Activity (vigor) score after administration ([2]; example, before administration a score of 1 (unable to move), scale 1-7): 3
- Activity (vigor): animals improved/animals evaluated ([2]; infection, 8 animals): 6/6
- Activity (vigor): response rate ([2]; infection, 8 animals): 100%
- Biochemical tests: animals improved/animals evaluated ([2]; infection, 8 animals): 6/6
- Biochemical tests: response rate ([2]; infection, 8 animals): 100%
- Hematology tests: animals improved/animals evaluated ([2]; infection, 8 animals): 1/1
- Hematology tests: response rate ([2]; infection, 8 animals): 100%
- Activity (vigor): animals improved/animals evaluated ([2]; liver disease, 1 animal): 1/1
- Activity (vigor): response rate ([2]; liver disease, 1 animal): 100%
- Body temperature: animals improved/animals evaluated ([2]; liver disease, 1 animal): 1/1
- Body temperature: response rate ([2]; liver disease, 1 animal): 100%
- Activity (vigor): animals improved/animals evaluated [2, 4]: 1/1
- Activity (vigor): response rate [2, 4]: 100%
- Activity (vigor): animals improved/animals evaluated ([2]; renal dysfunction, 3 animals): 3/3
- Activity (vigor): response rate ([2]; renal dysfunction, 3 animals): 100%
- Biochemical tests: animals improved/animals evaluated ([2]; renal dysfunction, 3 animals): 1/1
- Biochemical tests: response rate ([2]; renal dysfunction, 3 animals): 100%
- Hematology tests: animals improved/animals evaluated ([2]; renal dysfunction, 3 animals): 2/2
- Hematology tests: response rate ([2]; renal dysfunction, 3 animals): 100%
- Activity (vigor): animals improved/animals evaluated [2, 5]: 16/16
- Activity (vigor): response rate [2, 5]: 100%
- Biochemical tests: animals improved/animals evaluated [2, 5]: 11/11
- Biochemical tests: response rate [2, 5]: 100%
- Body temperature: animals improved/animals evaluated [2, 5]: 1/1
- Body temperature: response rate [2, 5]: 100%
- Hematology tests: animals improved/animals evaluated [2, 5]: 3/3
- Hematology tests: response rate [2, 5]: 100%
